pIC50: −log10 of the molar value. Where two headings read alike, the source gives them in different places. A value given as a limit tells only on which side of the number the result lay.

Assay type in all cases: biochemical
For one test, the target named is CDK4/CCND3 (Homo sapiens, UniProt P11802). The experiment in a line: CDK4 homogeneous time-resolved fluorescence (HTRF) kinase assay. The following applies: >250 nM; CDK4/CCND; read-out: CDK4/CCND IC50, >250 nM. The method, boiled down: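 Inhibition of CDK4/CCND3 (1.5 nM) was measured at high ATP (1 mM) using 50 nM ULight-labelled 4E-BP1 Thr37/46 peptide; detection used 2 nM europium anti-phospho antibody after EDTA quench. IC50 values came from 11-point half-log titrations typically starting at 10 μM.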
Background: Time-resolved FRET reads energy transfer from a long-lived donor to a nearby acceptor.

Another test has as its target CDK1/CCNB1 (Homo sapiens, UniProt P06493). The experiment in a line: CDK1 homogeneous time-resolved fluorescence (HTRF) kinase assay. The conditions noted are these: >250 nM; CDK1/CCNB; read-out: CDK1/CCNB IC50 >250 nM. The essentials:
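High-ATP (1 mM) HTRF assay with 0.5 nM CDK1/cyclin B1 and 50 nM ULight-4E-BP1 (Thr37/46) substrate, 60 min at 23 °C after 20-min compound preincubation. IC50 values come from dose-response curves.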

The next test concerns the target CDK2/CCNE1 (Homo sapiens, UniProt P24941). The test is described as follows: CDK2 homogeneous time-resolved fluorescence (HTRF) kinase assay. The conditions noted are these: CDK2/CCNE. The essentials: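 Compounds were titrated 11-point, half-log from typically 10 μM against 3 nM CDK2/cyclin E1 at 1 mM ATP, with a 20 min enzyme preincubation. Phosphorylation of 50 nM ULight-4E-BP1 peptide over 60 min at 23 °C was detected by europium anti-phospho antibody TR-FRET.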

Another test addresses CDK6/CCND1 (Homo sapiens, UniProt Q00534). The experiment in a line: CDK6 homogeneous time-resolved fluorescence (HTRF) kinase assay. The conditions noted are these: CDK6/CCND, 1 mM ATP. The method, boiled down: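 1 nM enzyme, 1 mM ATP, 50 nM ULight-4E-BP1 (Thr37/46) peptide, 1% DMSO; 20 min compound preincubation, 60 min reaction, 23 °C. EDTA stop, 2 nM Eu-anti-phospho-4E-BP1 antibody 60 min. TR-FRET 665 nm (or 665/615 ratio); IC50 from 11-point half-log titration, top 10 μM.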

Where [1] appears, read: 25-250 nM, read-out: CDK2/CCNE IC50, 25-250 nM.
Setting [2] is: >250 nM, read-out: CDK6/CCND IC50, >250 nM.
[3] abbreviates: <25 nM, read-out: CDK2/CCNE IC50, <25 nM.

Sequence of CDK4/CCND3 (P11802 whole entry): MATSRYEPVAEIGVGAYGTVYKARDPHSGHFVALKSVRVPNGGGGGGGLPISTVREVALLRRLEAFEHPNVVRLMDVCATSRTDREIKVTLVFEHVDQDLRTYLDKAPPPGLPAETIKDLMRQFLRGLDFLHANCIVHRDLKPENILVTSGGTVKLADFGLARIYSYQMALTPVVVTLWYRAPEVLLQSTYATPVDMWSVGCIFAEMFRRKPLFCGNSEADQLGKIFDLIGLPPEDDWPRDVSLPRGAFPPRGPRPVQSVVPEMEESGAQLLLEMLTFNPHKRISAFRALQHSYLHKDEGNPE
Sequence of CDK4/CCND3 (P30281 whole entry partner): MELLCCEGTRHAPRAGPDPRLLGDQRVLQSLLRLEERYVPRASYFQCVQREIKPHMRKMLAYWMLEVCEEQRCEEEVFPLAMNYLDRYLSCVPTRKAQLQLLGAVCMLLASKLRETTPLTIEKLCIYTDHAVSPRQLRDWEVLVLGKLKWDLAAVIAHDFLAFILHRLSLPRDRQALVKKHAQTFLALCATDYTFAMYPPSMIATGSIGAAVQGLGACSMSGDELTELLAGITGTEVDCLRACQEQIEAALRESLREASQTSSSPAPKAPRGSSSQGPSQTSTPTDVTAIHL
Sequence of CDK6/CCND1 (Q00534 whole entry): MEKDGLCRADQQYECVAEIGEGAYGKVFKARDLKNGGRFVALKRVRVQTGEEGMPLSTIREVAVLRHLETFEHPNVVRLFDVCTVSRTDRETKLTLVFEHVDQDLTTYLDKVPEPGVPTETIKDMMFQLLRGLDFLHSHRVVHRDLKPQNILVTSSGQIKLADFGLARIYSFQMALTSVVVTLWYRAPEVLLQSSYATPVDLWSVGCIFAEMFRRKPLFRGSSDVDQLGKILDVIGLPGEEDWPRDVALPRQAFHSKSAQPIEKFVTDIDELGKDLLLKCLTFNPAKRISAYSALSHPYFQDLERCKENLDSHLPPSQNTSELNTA
Sequence of CDK6/CCND1 (P24385 whole entry partner): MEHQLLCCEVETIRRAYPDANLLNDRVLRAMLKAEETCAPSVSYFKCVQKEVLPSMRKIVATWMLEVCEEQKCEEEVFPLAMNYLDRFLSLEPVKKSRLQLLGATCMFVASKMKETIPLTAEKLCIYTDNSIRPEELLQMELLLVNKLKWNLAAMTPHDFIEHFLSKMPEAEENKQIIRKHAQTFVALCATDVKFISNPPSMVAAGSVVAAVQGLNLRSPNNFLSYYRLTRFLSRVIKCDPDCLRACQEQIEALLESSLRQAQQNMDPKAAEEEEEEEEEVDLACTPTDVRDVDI
Sequence of CDK1/CCNB1 (P06493 whole entry): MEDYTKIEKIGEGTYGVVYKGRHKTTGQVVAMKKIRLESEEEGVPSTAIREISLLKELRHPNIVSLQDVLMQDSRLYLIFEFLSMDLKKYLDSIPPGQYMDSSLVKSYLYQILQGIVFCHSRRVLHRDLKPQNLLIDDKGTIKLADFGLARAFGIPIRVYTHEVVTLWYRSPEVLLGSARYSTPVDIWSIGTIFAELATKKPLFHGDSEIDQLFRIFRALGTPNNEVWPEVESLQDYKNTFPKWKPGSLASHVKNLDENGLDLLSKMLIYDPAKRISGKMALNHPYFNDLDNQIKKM
Sequence of CDK1/CCNB1 (P14635 whole entry partner): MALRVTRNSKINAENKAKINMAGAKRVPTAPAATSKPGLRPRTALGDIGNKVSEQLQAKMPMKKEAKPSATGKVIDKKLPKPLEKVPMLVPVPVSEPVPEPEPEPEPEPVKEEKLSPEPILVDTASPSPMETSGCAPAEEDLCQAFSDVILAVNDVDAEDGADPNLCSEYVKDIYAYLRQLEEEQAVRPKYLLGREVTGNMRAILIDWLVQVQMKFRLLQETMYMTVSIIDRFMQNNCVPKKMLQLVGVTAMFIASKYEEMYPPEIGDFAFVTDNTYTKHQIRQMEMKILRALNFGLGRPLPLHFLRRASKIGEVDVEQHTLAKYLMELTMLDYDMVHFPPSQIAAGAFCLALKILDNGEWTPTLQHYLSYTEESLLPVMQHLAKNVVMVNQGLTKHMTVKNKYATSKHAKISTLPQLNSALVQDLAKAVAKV

`Cc1c(-c2nccc3cnc(Nc4ccc(NS(=O)(=O)c5cc6ccccc6o5)cc4)cc23)ccc2c1cnn2CC(C)(C)O` [Example 776, N-(4-((5-(1-(2-hydroxy-2-methylpropyl)-4-methyl-1H-indazol-5-yl)-2,6-naphthyridin-3-yl)amino)phenyl)benzofuran-2-sulfonamide]: the pIC50 at CDK4/CCND3 was less than 6.60; at CDK1/CCNB1, less than 6.60; at CDK2/CCNE1 (setting [1]), 6.60 to 7.60; on CDK6/CCND1 (setting [2]), less than 6.60.
On to `Cc1c(-c2nccc3cnc(Nc4ccc(S(C)(=O)=O)cc4O)cc23)ccc2c1cnn2CC(C)(C)O` [Example 784, 2-((5-(1-(2-hydroxy-2-methylpropyl)-4-methyl-1H-indazol-5-yl)-2,6-naphthyridin-3-yl)amino)-5-(methylsulfonyl)phenol], for which the pIC50 on CDK4/CCND3 was less than 6.60; on CDK1/CCNB1 it was less than 6.60; on CDK2/CCNE1 (setting [3]), more than 7.60; on CDK6/CCND1 (25-250 nM, read-out: CDK6/CCND IC50, 25-250 nM), 6.60 to 7.60.
With `Cc1c(-c2ncc(F)c3cnc(Nc4ccc(S(C)(=O)=O)cc4)cc23)ccc2c1cnn2CC(C)(C)O` [Example 788, 1-(5-(4-fluoro-7-((4-(methylsulfonyl)phenyl)amino)-2,6-naphthyridin-1-yl)-4-methyl-1H-indazol-1-yl)-2-methylpropan-2-ol], the pIC50 at CDK4/CCND3 is less than 6.60; on CDK1/CCNB1, less than 6.60; on CDK2/CCNE1 (setting [1]) it was 6.60 to 7.60; on CDK6/CCND1 (setting [2]), less than 6.60.
Regarding `Cc1c(-c2nccc3cnc(Nc4ccc(S(=O)(=O)Nc5nc(C(F)(F)F)cc(C(F)(F)F)n5)cc4)cc23)ccc2c1cnn2CC(C)(C)O` [Example 789, N-(4,6-bis(trifluoromethyl)pyrimidin-2-yl)-4-((5-(1-(2-hydroxy-2-methylpropyl)-4-methyl-1H-indazol-5-yl)-2,6-naphthyridin-3yl)amino)benzenesulfonamide], the pIC50 on CDK4/CCND3 is less than 6.60; at CDK1/CCNB1, less than 6.60; at CDK2/CCNE1 (setting [1]), 6.60 to 7.60; on CDK6/CCND1 (setting [2]) it was less than 6.60.
Take `COc1ccc(C(=O)N2CC[C@@H](Nc3cc4c(-c5ccc6c(cnn6CC(C)(C)O)c5C)nccc4cn3)C2)cc1` [Example 790, (R)-(3-((5-(1-(2-hydroxy-2-methylpropyl)-4-methyl-1H-indazol-5-yl)-2,6-naphthyridin-3-yl)amino)pyrrolidin-1-yl)(4-methoxyphenyl)methanone]: the pIC50 was less than 6.60 on CDK4/CCND3, less than 6.60 on CDK1/CCNB1, more than 7.60 on CDK2/CCNE1 (setting [3]) and less than 6.60 at CDK6/CCND1 (setting [2]).
In the case of `CS(=O)(=O)c1ccc(Nc2cc3c(C#Cc4cnc(F)c(F)c4)nccc3cn2)cc1` [Example 852, 5-((5,6-difluoropyridin-3-yl)ethynyl)-N-(4-(methylsulfonyl)phenyl)-2,6-naphthyridin-3-amine], the pIC50 at CDK4/CCND3 was less than 6.60; at CDK1/CCNB1, less than 6.60; on CDK2/CCNE1 (setting [1]), 6.60 to 7.60; at CDK6/CCND1 (setting [2]), less than 6.60.
As for `N#Cc1ccc(C#Cc2nccc3cnc(Nc4ccc5c(c4)OCCS5(=O)=O)cc23)cc1` [Example 862, 4-((7-((4,4-dioxido-2,3-dihydrobenzo[b][1,4]oxathiin-7-yl)amino)-2,6-naphthyridin-1-yl)ethynyl)benzonitrile], the pIC50 is less than 6.60 at CDK4/CCND3, less than 6.60 at CDK1/CCNB1, 6.60 to 7.60 at CDK2/CCNE1 (setting [1]) and less than 6.60 at CDK6/CCND1 (setting [2]).
In the case of `CN1CCN(c2ccc(C#Cc3nccc4cnc(Nc5ccc(S(=O)(=O)O)cc5)cc34)cc2)CC1` [Example 863, 4-((5-((4-(4-methylpiperazin-1-yl)phenyl)ethynyl)-2,6-naphthyridin-3-yl)amino)benzenesulfonic acid], the pIC50 at CDK4/CCND3 was less than 6.60; on CDK1/CCNB1 it was less than 6.60; on CDK2/CCNE1 (setting [1]), 6.60 to 7.60; on CDK6/CCND1 (setting [2]), less than 6.60.
Turning to `CC#Cc1nccc2cnc(Nc3ccc(S(=O)(=O)Nc4nccc(N5CCN(C)CC5)n4)cc3)cc12` [Example 877, N-(4-(4-methylpiperazin-1-yl)pyrimidin-2-yl)-4-((5-(prop-1-yn-1-yl)-2,6-naphthyridin-3-yl)amino)benzenesulfonamide], the pIC50 is less than 6.60 at CDK4/CCND3, less than 6.60 at CDK1/CCNB1, 6.60 to 7.60 on CDK2/CCNE1 (setting [1]) and less than 6.60 at CDK6/CCND1 (setting [2]).

The values above are taken from patent US20260325533A1, “CDK INHIBITOR COMPOUNDS” (ALEKSIA THERAPEUTICS, INC., priority 2023, published 2026).
